Data taken from patent EP0293826A2, “Therapeutic and prophylactic application of sulfated polysaccharides against AIDS” (priority 1987, dated 1988).

Legend:
[1] = test system: human immuno deficiency virus (HIV); conditions: cited from earlier work
HIV-1 = assay: Inhibition of HIV-1 replication in MT-4 cells (trypan blue exclusion, day 5); type: cell-based
Method: MT-4 cells were suspended at 5 x 10^s cells per ml and infected with HIV-1 at 1000 CCIDso per ml (1 CCIDso being the 50% cell culture infective dose). After 2 h-incubation at 37° C, 5 x 10^4 cells per 100 µl were brought into each well of a flat-bottomed 96-well plastic microtiter tray containing 100 µl of various dilutions of the test compounds. After 5 days incubation at 37° C, the number of viable cells was determined microscopically in an hemacytometer by trypan blue exclusion. Anti-HIV-1 activity of the compounds was also determined by monitoring viral antigen expression in HUT-78 cells at day 14 after infection, measured by indirect immunifluorescence, using a polyclonal antibody as probe.

Row | Molecule | concentration completely protecting ATH8 cells against the cytopathogenicity of HIV [1] | concentration at which no anti-HIV-1 activity was shown (HIV-1)
1 | Cc1cn([C@H]2C[C@H](N=[N+]=[N-])[C@@H](CO)O2)c(=O)[nH]c1=O [AZT, 3 -azido-2',3 -dideoxythymidine] | 1-5 µ.M | 
2 | Cc1cc(-c2ccc(/N=N/c3ccc4c(S(=O)(=O)O)cc(S(=O)(=O)O)c(N)c4c3O)c(C)c2)ccc1/N=N/c1ccc2c(S(=O)(=O)O)cc(S(=O)(=O)O)c(N)c2c1O [Evans Blue] | 25 µg/mL | 
3 | N[C@H]1C(O)O[C@H](CO)[C@@H](O)[C@@H]1OS(=O)(=O)O (stereo partly shown) [glucosamine 3-sulfate, glucosamine-3-sulfate] |  | > 125 µg/mL
4 | N[C@H]1C(O)O[C@H](COS(=O)(=O)O)[C@@H](O)[C@@H]1O (stereo partly shown) [glucosamine 6-sulfate, glucosamine-6-sulfate] |  | > 125 µg/mL
5 | Cc1ccc(C(=O)Nc2ccc(S(=O)(=O)O)c3cc(S(=O)(=O)O)cc(S(=O)(=O)O)c23)cc1NC(=O)c1cccc(NC(=O)Nc2cccc(C(=O)Nc3cc(C(=O)Nc4ccc(S(=O)(=O)O)c5cc(S(=O)(=O)O)cc(S(=O)(=O)O)c45)ccc3C)c2)c1 [suramin] | 50 µg/mL | 
6 | glucosamine-2,3-disulfate [glucosamine 2,3-disulfate] |  | > 125 µg/mL
7 | glucosamine-2-sulfate [glucosamine 2-sulfate] |  | > 125 µg/mL
